Measurements: patent US9884063B2, “Amido-substituted azole compounds” (Bayer Pharma Aktiengesellschaft, priority 2014, dated 2018)

The molecules below were run against T1, TNKS1 (Homo sapiens, UniProt O95271) (assay: Modified TNKS1 Assay 2 (auto-parsylation, [3H]-NAD+ SPA)). Conditions: 6 nM TNKS1, 96 well.
T1 sequence (O95271 1-1327): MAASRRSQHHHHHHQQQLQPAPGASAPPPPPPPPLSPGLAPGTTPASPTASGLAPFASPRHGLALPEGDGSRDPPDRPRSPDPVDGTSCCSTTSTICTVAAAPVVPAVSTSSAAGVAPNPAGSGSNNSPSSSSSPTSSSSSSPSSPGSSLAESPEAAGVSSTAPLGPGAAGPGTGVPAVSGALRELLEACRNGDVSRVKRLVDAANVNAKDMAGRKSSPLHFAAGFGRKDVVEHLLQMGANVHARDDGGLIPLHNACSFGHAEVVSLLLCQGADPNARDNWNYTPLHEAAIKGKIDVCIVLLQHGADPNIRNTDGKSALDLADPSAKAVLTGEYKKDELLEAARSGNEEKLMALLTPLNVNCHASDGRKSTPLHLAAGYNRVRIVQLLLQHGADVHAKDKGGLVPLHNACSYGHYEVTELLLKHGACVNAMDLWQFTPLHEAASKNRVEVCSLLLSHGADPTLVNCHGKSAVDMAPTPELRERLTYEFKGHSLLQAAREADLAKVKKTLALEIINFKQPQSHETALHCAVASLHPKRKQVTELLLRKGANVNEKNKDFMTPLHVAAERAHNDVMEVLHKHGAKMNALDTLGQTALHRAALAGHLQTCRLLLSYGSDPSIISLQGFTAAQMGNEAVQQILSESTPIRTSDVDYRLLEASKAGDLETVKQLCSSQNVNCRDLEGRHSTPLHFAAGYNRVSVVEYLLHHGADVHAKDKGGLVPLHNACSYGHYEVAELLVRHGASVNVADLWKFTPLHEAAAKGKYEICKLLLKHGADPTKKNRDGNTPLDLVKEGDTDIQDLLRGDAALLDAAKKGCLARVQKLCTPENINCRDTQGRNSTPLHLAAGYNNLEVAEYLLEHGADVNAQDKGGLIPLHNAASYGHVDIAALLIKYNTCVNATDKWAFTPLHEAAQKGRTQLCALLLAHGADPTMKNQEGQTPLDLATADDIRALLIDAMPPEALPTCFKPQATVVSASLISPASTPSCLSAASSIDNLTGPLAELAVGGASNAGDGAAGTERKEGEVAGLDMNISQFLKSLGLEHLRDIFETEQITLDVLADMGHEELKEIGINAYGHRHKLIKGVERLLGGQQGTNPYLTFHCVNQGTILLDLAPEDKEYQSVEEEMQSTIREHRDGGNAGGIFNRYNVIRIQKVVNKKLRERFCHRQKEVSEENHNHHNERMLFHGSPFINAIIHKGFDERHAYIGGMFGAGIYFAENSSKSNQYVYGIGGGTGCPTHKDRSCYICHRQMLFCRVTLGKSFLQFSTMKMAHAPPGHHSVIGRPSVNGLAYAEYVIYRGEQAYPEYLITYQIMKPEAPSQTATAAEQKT
Type: biochemical

Row | IC50 [nM] | Structure (SMILES)
1 | > 10000 | CNC(=O)c1nc[nH]c1C(=O)Nc1ccc(NC(=O)c2ccccc2)cc1 [Example 21, N^5-[4-(benzoylamino)phenyl]-N^4-methyl-1H-imidazole-4,5-dicarboxamide]
2 | > 10000 | CNC(=O)c1nc[nH]c1C(=O)Nc1ccc(NC(=O)c2ccc(F)c(Cl)c2)cc1 [Example 340, N^5-{4-[(3-chloro-4-fluorobenzoyl)amino]phenyl}-N^4-methyl-1H-imidazole-4,5-dicarboxamide]
3 | 640 | CNC(=O)c1nc[nH]c1C(=O)Nc1ccc(NC(=O)c2c(F)cc(F)cc2F)cc1 [Example 342, N^4-methyl-N^5-{4-[(2,4,6-trifluorobenzoyl)amino]phenyl}-1H-imidazole-4,5-dicarboxamide]
4 | 2000 | CNC(=O)c1nc[nH]c1C(=O)Nc1ccc(NC(=O)c2c(C)cccc2Cl)cc1 [Example 343, N^5-{4-[(2-chloro-6-methylbenzoyl)amino]phenyl}-N^4-methyl-1H-imidazole-4,5-dicarboxamide]
5 | > 10000 | CNC(=O)c1nc[nH]c1C(=O)Nc1ccc(NC(=O)c2ccc(C)c(Cl)c2)cc1 [Example 344, N^5-{4-[(3-chloro-4-methylbenzoyl)amino]phenyl}-N^4-methyl-1H-imidazole-4,5-dicarboxamide]
6 | 2700 | CNC(=O)c1nc[nH]c1C(=O)Nc1ccc(NC(=O)c2cc(C#N)ccc2F)cc1 [Example 349, N^5-{4-[(5-cyano-2-fluorobenzoyl)amino]phenyl}-N^4-methyl-1H-imidazole-4,5-dicarboxamide]
7 | 580 | CNC(=O)c1nc[nH]c1C(=O)Nc1ccc(NC(=O)c2cc(C(F)(F)F)ccc2Cl)cc1 [Example 352, N^5-(4-{[2-chloro-5-(trifluoromethyl)benzoyl]amino}phenyl)-N^4-methyl-1H-imidazole-4,5-dicarboxamide]
8 | > 10000 | CNC(=O)c1nc[nH]c1C(=O)Nc1ccc(NC(=O)c2cccc(Cl)n2)cc1 [Example 353, N^5-(4-{[(6-chloropyridin-2-yl)carbonyl]amino}phenyl)-N^4-methyl-1H-imidazole-4,5-dicarboxamide]
9 | 2000 | CNC(=O)c1nc[nH]c1C(=O)Nc1ccc(NC(=O)c2ncccc2C)cc1 [Example 356, N^4-methyl-N^5-(4-{[(3-methylpyridin-2-yl)carbonyl]amino}phenyl)-1H-imidazole-4,5-dicarboxamide]
10 | > 10000 | CNC(=O)c1nc[nH]c1C(=O)Nc1ccc(NC(=O)c2ccc(F)c(Cl)c2F)cc1 [Example 359, N^5-{4-[(3-chloro-2,4-difluorobenzoyl)amino]phenyl}-N^4-methyl-1H-imidazole-4,5-dicarboxamide]
11 | 140 | CNC(=O)c1nc[nH]c1C(=O)Nc1ccc(NC(=O)c2cc(F)ccc2Cl)cc1 [Example 361, N^5-{4-[(2-chloro-5-fluorobenzoyl)amino]phenyl}-N^4-methyl-1H-imidazole-4,5-dicarboxamide]
12 | > 10000 | CNC(=O)c1nc[nH]c1C(=O)Nc1ccc(NC(=O)c2cc(C)ccn2)cc1 [Example 363, N^4-methyl-N^5-(4-{[(4-methylpyridin-2-yl)carbonyl]amino}phenyl)-1H-imidazole-4,5-dicarboxamide]
13 | 6100 | CNC(=O)c1nc[nH]c1C(=O)Nc1ccc(NC(=O)c2cc(F)ccc2OC)cc1 [Example 364, N^5-{4-[(5-fluoro-2-methoxybenzoyl)amino]phenyl}-N^4-methyl-1H-imidazole-4,5-dicarboxamide]
14 | > 10000 | CNC(=O)c1nc[nH]c1C(=O)Nc1ccc(NC(=O)c2cncc(C)c2)cc1 [Example 366, N^4-methyl-N^5-(4-{[(5-methylpyridin-3-yl)carbonyl]amino}phenyl)-1H-imidazole-4,5-dicarboxamide]
15 | > 10000 | CNC(=O)c1nc[nH]c1C(=O)Nc1ccc(NC(=O)c2cccc(F)c2OC)cc1 [Example 367, N^5-{4-[(3-fluoro-2-methoxybenzoyl)amino]phenyl}-N^4-methyl-1H-imidazole-4,5-dicarboxamide]
16 | > 10000 | CNC(=O)c1nc[nH]c1C(=O)Nc1ccc(NC(=O)c2cccc(F)c2Cl)cc1 [Example 370, N^5-{4-[(2-chloro-3-fluorobenzoyl)amino]phenyl}-N^4-methyl-1H-imidazole-4,5-dicarboxamide]
17 | 5700 | CNC(=O)c1nc[nH]c1C(=O)Nc1ccc(NC(=O)c2nccnc2Cl)cc1 [Example 372, N^5-(4-{[(3-chloropyrazin-2-yl)carbonyl]amino}phenyl)-N^4-methyl-1H-imidazole-4,5-dicarboxamide]
18 | 1600 | CNC(=O)c1nc[nH]c1C(=O)Nc1ccc(NC(=O)c2c(F)ccc(F)c2Cl)cc1 [Example 374, N^5-{4-[(2-chloro-3,6-difluorobenzoyl)amino]phenyl}-N^4-methyl-1H-imidazole-4,5-dicarboxamide]
19 | 1200 | CNC(=O)c1nc[nH]c1C(=O)Nc1ccc(NC(=O)c2c(C)cccc2F)cc1 [Example 375, N^5-{4-[(2-fluoro-6-methylbenzoyl)amino]phenyl}-N^4-methyl-1H-imidazole-4,5-dicarboxamide]
20 | > 10000 | CNC(=O)c1nc[nH]c1C(=O)Nc1ccc(NC(=O)c2ccon2)cc1 [Example 376, N^4-methyl-N^5-{4-[(1,2-oxazol-3-ylcarbonyl)amino]phenyl}-1H-imidazole-4,5-dicarboxamide]
21 | 470 | CNC(=O)c1nc[nH]c1C(=O)Nc1ccc(NC(=O)c2cc(F)c(F)cc2C)cc1 [Example 377, N^5-{4-[(4,5-difluoro-2-methylbenzoyl)amino]phenyl}-N^4-methyl-1H-imidazole-4,5-dicarboxamide]
22 | 20 | O=C(Nc1ccc(NC(=O)c2nc[nH]c2C(=O)NCCN2CCCCC2)cc1)c1ccccc1Cl [Example 381, N^4-{4-[(2-chlorobenzoyl)amino]phenyl}-N^5-[2-(piperidin-1-yl)ethyl]-1H-imidazole-4,5-dicarboxamide]
23 | 1500 | O=C(Nc1ccc(NC(=O)c2[nH]cnc2C(=O)NCCc2ccccc2)cc1)c1ccc(F)cc1Cl [Example 384, N^5-{4-[(2-chloro-4-fluorobenzoyl)amino]phenyl}-N^4-(2-phenylethyl)-1H-imidazole-4,5-dicarboxamide]
24 | 100 | O=C(Nc1ccc(NC(=O)c2[nH]cnc2C(=O)NCCc2ccccn2)cc1)c1ccc(F)cc1Cl [Example 387, N^5-{4-[(2-chloro-4-fluorobenzoyl)amino]phenyl}-N^4-[2-(pyridin-2-yl)ethyl]-1H-imidazole-4,5-dicarboxamide]
25 | 300 | CCN(CC)CCCCNC(=O)c1nc[nH]c1C(=O)Nc1ccc(NC(=O)c2ccc(F)cc2Cl)cc1 [Example 393, N^5-{4-[(2-chloro-4-fluorobenzoyl)amino]phenyl}-N^4-[4-(diethylamino)butyl]-1H-imidazole-4,5-dicarboxamide]
26 | 50 | O=C(Nc1ccc(NC(=O)c2[nH]cnc2C(=O)NCCc2ccncc2)cc1)c1ccc(F)cc1Cl [Example 394, N^5-{4-[(2-chloro-4-fluorobenzoyl)amino]phenyl}-N^4-[2-(pyridin-4-yl)ethyl]-1H-imidazole-4,5-dicarboxamide]
27 | 240 | O=C(Nc1ccc(NC(=O)c2nc[nH]c2C(=O)NCC2CCOCC2)cc1)c1ccc(F)cc1Cl [Example 397, N^5-{4-[(2-chloro-4-fluorobenzoyl)amino]phenyl}-N^4-(tetrahydro-2H-pyran-4-ylmethyl)-1H-imidazole-4,5-dicarboxamide]
28 | 100 | O=C(Nc1ccc(NC(=O)c2[nH]cnc2C(=O)NCCc2cccnc2)cc1)c1ccc(F)cc1Cl [Example 405, N^5-{4-[(2-chloro-4-fluorobenzoyl)amino]phenyl}-N^4-[2-(pyridin-3-yl)ethyl]-1H-imidazole-4,5-dicarboxamide]

The molecules below were run on HEK293 FOP control reporter cell line (assay: HEK293 FOP Assay (FOP control vector luciferase reporter)). Conditions: Homo sapiens; HEK293 FOP control reporter cell line, 16 hours incubation, compound dilution series 50 μM to 15 nM.
Type: cell-based
Outline: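 Compound series 50 μM to 15 nM, 3.16-fold steps, were diluted in CAFTY buffer (pH 7.4, 2 mM Ca2+, 0.01% BSA) and tested alongside the TOP reporter line. Human Wnt-3a was added at 2500–5 ng/ml in two-fold steps. The control HEK293 line stably holds an FOP vector whose TCF elements are randomized and non-functional.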

Row | Structure (SMILES) | IC50 [nM]
29 | CNC(=O)c1nc[nH]c1C(=O)Nc1ccc(NC(=O)c2ccccc2)cc1 [Example 21, N^5-[4-(benzoylamino)phenyl]-N^4-methyl-1H-imidazole-4,5-dicarboxamide] | 35000

Same assay, conditions: Homo sapiens; HEK293 FOP control reporter cells, 16 hours, luciferase; dilution series from 50 μM

Row | Structure (SMILES) | IC50 [nM]
30 | CNC(=O)c1nc[nH]c1C(=O)Nc1ccc(NC(=O)c2ccccc2)cc1 [Example 21, N^5-[4-(benzoylamino)phenyl]-N^4-methyl-1H-imidazole-4,5-dicarboxamide] | 35000
